Assay results as given in the NIST ThermoML archive (doi:10.1021/je049591p).

Assays:
[1] = xn = mol fraction of the nth substance listed; details: Ring tensiometer
[2] = for surface tension liquid-gas: Ring tensiometer; for mass density: 101.33 kPa, Liquid

OCc1ccccc1 [benzenemethanol] + OCCO
surface tension liquid-gas [mN/m], [1]
Details	293.15 K	298.15 K	303.15 K	308.15 K	313.15 K	318.15 K	323.15 K
x1 = 0.0319	47.78	47.35	46.92	46.54	46.14	45.71	45.26
x1 = 0.0535	47.45	47.01	46.53	46.07	45.66	45.24	44.79
x1 = 0.0727	47.13	46.67	46.15	45.72	45.26	44.86	44.32
x1 = 0.0854	46.69	46.19	45.76	45.31	44.85	44.41	43.91
x1 = 0.1118	45.87	45.43	44.9	44.46	44.04	43.53	43.06
x1 = 0.206	44.07	43.61	43.08	42.6	42.12	41.67	41.16
x1 = 0.2633	42.87	42.42	41.87	41.39	40.84	40.4	39.9
x1 = 0.3883	41.53	41.07	40.61	40.14	39.7	39.24	38.76
x1 = 0.5596	40.58	40.18	39.68	39.24	38.77	38.27	37.79
x1 = 0.7394	39.44	38.95	38.45	37.94	37.51	36.99	36.53
x1 = 0.9101	39.28	38.79	38.3	37.79	37.35	36.84	36.38
x1 = 1	39.05	38.58	38.12	37.63	37.16	36.63	36.18

OCc1ccccc1 [benzenemethanol]
[2]
Details	mass density [kg/m3]	surface tension liquid-gas [mN/m]
293.15 K	1045.2	39.05
298.15 K	1041.4	38.58
303.15 K	1037.5	38.12
308.15 K	1033.6	37.63
313.15 K	1029.8	37.16
318.15 K	1025.8	36.63
323.15 K	1021.9	36.18

OCCO [1,2-ethanediol]
[2]
Details	mass density [kg/m3]	surface tension liquid-gas [mN/m]
293.15 K	1113.34	48.42
298.15 K	–	48.03
303.15 K	1106.36	47.57
308.15 K	–	47.2
313.15 K	1098.39	46.78
318.15 K	–	46.42
323.15 K	1091.05	46.02

OCCO [1,2-ethanediol] + OCc1ccccc1
[1], x2 = 0
Details	surface tension liquid-gas [mN/m]
293.15 K	48.42
298.15 K	48.03
303.15 K	47.57
308.15 K	47.2
313.15 K	46.78
318.15 K	46.42
323.15 K	46.02
